From patent publication US9655891B1, “Use of isoquinoline derivatives for diabetic wound healing” (ZIH YUAN TANG Biotechnology Co., Ltd, priority 2016, dated 2017)

Columns and labels:
[1] = tested on: wounds of STZ induced diabetic rats; assay: Excisional full-thickness skin wound healing in STZ induced diabetic rats (recovery rate); assay type: in vivo, Wistar rats
Experimental: Salsolinol ointments at 0.01 mg/g, 0.03 mg/g, 0.1 mg/g, and 0.3 mg/g were prepared respectively by dissolving 0.5 mg, 1.5 mg, 5 mg, and 15 mg of salsoinol in 2.5 mL of glycerol (Sigma Inc., MO, USA) plus 1.0 mL of Creagel emulsifier (First Chemical, TPE, Taiwan) and 45.5 mL of distilled water. Vehicle was composed of glycerol (2.5 mL), Creagel emulsifier (1.0 mL), and distilled water (45.5 mL).
Swivazin®-HN cream was used as positive control for treating the wounds of STZ induced diabetic rats, which contained asiaticoside (4 mg/g), isolated from Centella asiatica. […]. Ethnopharmacology 65 (1999): 1-11].
Adult male Wistar rats were used at four weeks of age, purchased from BioLASCO Taiwan, and were acclimatized in a room with 12-12 h light (7:00 A.M. to 7:00 P.M.)-dark (7:00 P.M. to 7:00 A.M.) cycle, a temperature of 23±1° C., and a humidity of 65±5%.
Each rat had free access to both water and standard rodent soft chow ad libitum. STZ was injected intraperitoneally at a dose of 65 mg/Kg body weight.
All experimental procedures were approved by and performed in compliance with the guidelines of the Institutional Animal Care and Use Committee (IACUC). All surgeries were conducted while animals were under continuous anesthesia with 4% isoflurane.
The dorsal skin was shaved and then disinfected with 10% povidone-iodine before an excisional full-thickness square-shaped skin wound (1.5×1.5 cm) was induced using a sterile wound maker. Animal was then housed alone in its cage to avoid any further wound damage.
. The groups were administered at the same amount once daily and the wounds were photopictured on Day 1, Day 3, Day 5, Day 7, Day 10, and Day 15 and the sizes of the wounds were analyzed using Visual Basic 6.0. Wound closure at experimental time points was calculated as percentage of initial wound area, called as “recovery rate.”

[2] = tested on: AMP-dependent protein kinase (AMPK); settings: disclosed in U.S. patent application Ser. No. 14/492,547; cited from earlier work

Row | SMILES | recovery rate (in words) ([1]; FIG. 2, salsolinol 0.01 mg/g, Day 7-15) | wound closure and healing ([1]; FIG. 2, salsolinol at all the concentrations (0.01, 0.03, 0.1, 0.3 mg/g)) | recovery rate (wound closure as percentage of initial wound area) ([1]; FIG. 2, salsolinol ointment 0.01 mg/g once daily, topical, Day 15) | difference in recovery between D+Salsolinol and Swivazin (DP, positive control) ([1]; FIG. 3) | recovery rate compared with groups without treatment (DC) or vehicle (DV) ([1]; FIG. 3, D+Salsolinol) | activation of AMPK [2]
1 | CC1NCCc2cc(O)c(O)cc21 (stereo not shown) [salsolinol] | relatively improved recovery rate | could enhance the wound closure and healing | over 97% | no obvious difference | significantly increased recovery rate | can activate AMP-dependent protein kinase (AMPK)
2 | COc1ccc(C[C@H]2c3cc(O)c(OC)cc3CCN2C)cc1O [reticuline, reference compound] | – | – | – | – | – | can activate AMP-dependent protein kinase (AMPK)
